Columns and labels:
Type in all cases: cell-based, human
[1] = system: α-SMA, collagen 1A and fibronectin in CCD8-Lu cells; test: Comparison of anti-fibrotic activity by Western blotting (Experimental Example 4.2); settings: 6 hours after 5 ng/ml TGF-β, 18 hours
Method: A cell-based analysis experiment was performed to analyze the anti-fibrotic activity of pheophorbide a in comparison with nintedanib and pirfenidone, which were previously approved as a therapeutic agent for pulmonary fibrosis, using Western blotting assay.
(§1) CCD8-Lu cells, which are human lung-derived fibroblasts, were cultured in the DMEM medium containing 10% FBS. About 2×10^5 cells were then inoculated into a 6 well plate, cultured for 24 hours, and subjected to the deficient condition in the DMEM medium from which FBS was removed for about 24 hours.
24 hours later, following the treatment with TGF-β at a concentration of 5 ng/ml, fibrosis of cells was induced for 6 hours. Then, the cells were treated with pheophorbide a obtained in Preparation Example 2 or the therapeutic agent for pulmonary fibrosis and further cultured for 18 hours. Then, the negative control group was treated with nothing, the positive control group was treated with TGF-β alone at a concentration of 5 ng/ml, and the experimental groups were treated with TGF-β at a concentration of 5 ng/ml and 6 hours later, with pheophorbide a at a concentration of […] or 5 μM, nintedanib at a concentration of 1 μM, and pirfenidone at a concentration of 1 mM, respectively.
After 18 hours, the culture medium was removed and the cells were washed twice by adding a PBS buffer solution, and 100 μl of RIPA buffer solution (150 mM NaCl, 1% NP-40, 0.5% Deoxycholic acid, 0.1% SDS, 50 mM Tris pH 7.5) containing a protease inhibitor was added thereto directly. 10 minutes later, the cells were recovered using a scraper and transferred to a microtube and centrifuged at about 12,000×g for 10 minutes.
The separated supernatant was obtained and transferred to a new microtube and then the protein was quantified using a bicinchoninic acid assay (BCA assay) protein quantitative kit. Each sample with the same amount of protein was subjected to electrophoresis, and then Western blotting was performed. […]

[2] = system: α-SMA, CTGF and NOX4 genes in CCD8-Lu cells; test: Comparison of anti-fibrotic activity by quantitative real-time PCR (Experimental Example 4.1); settings: 6 hours after 5 ng/ml TGF-β, 18 hours, qRT-PCR
Method: A cell-based analysis experiment was performed to analyze the anti-fibrotic activity of pheophorbide a obtained in Preparation Example 2 in comparison with nintedanib and pirfenidone, which were previously approved as a therapeutic agent for pulmonary fibrosis, using quantitative real-time polymerase chain reaction.
as §1
24 hours later, following the treatment with TGF-β at a concentration of 5 ng/ml, fibrosis of cells was induced for 6 hours. After 6 hours, the cells were treated with pheophorbide a obtained in Preparation Example 2 or the therapeutic agent for pulmonary fibrosis and further cultured for 18 hours. […]
The supernatant was separated, added with the same volume of isopropyl alcohol and centrifuged at 12,000×g for 10 minutes. […] After drying, about 50 μl of RNAase-free purified distilled water was added thereto, and the quantity and purity of the obtained RNA was measured using a spectrophotometer. […]
After the cDNA synthesis reaction was completed, the reverse transcriptase was inactivated by heating at 72° C. for 5 minutes, and then RNase H was added to remove the […] RNA and obtain the final cDNA. Whether the expression of the alpha-smooth muscle actin gene, which is a characteristic gene of myofibroblasts, the CCN2 (or CTGF) gene, which is a characteristic gene for fibrosis, fibronectin, which is a characteristics gene for fibrosis, and the NOX4 (NADPH oxidase 4) gene known as a major regulator of the amount of reactive oxygen species was changed was observed through quantitative real-time polymerase chain reaction. The GAPDH gene was quantified together to correct differences in expression.

[3] = system: collagen 1A in CCD8-Lu cells; test: Comparison of anti-fibrotic activity by immunocytochemistry staining (Experimental Example 4.3); settings: 1 μM; 6 hours after 5 ng/ml TGF-β; fluorescence intensity
Method: A cell-based analysis experiment was performed to analyze the anti-fibrotic activity of pheophorbide a in comparison with nintedanib and pirfenidone, which were previously approved as a therapeutic agent for pulmonary fibrosis, using immunocytochemistry staining method. CCD8-Lu cells, which are human lung-derived fibroblasts, were cultured in the DMEM medium containing 10% FBS. About 2×10^4 cells were then inoculated into a 24 well plate and cultured for 24 hours, and subjected to the deficient condition in the DMEM medium from which FBS was removed for about 24 hours. After 24 hours, following the treatment with TGF-β at a concentration of 5 ng/ml, fibrosis of cells was induced for 6 hours. After 6 hours, the cells were treated with 2.5 μM or 5 μM of pheophorbide a, 1 μM of nintedanib, or 1 mM of pirfenidone. Immunohistochemistry analysis for each sample was performed as follows. First, the sample was washed twice with a PBS buffer, and then 4% formaldehyde was added to fix for 1 hour, and anti-collagen 1A was used as a primary antibody and Alexa Fluor 488 was used as a secondary antibody. The nuclei were stained using DAPI (4,6-diamidino-2-phenylindole) and the difference in the intensity of fluorescence was analyzed using a fluorescence microscope.

[4] = system: phosphorylated Smad3 and phosphorylated ERK in CCD8-Lu cells; test: Western blotting of phosphorylated proteins of TGF-β signaling (Experimental Example 5); settings: 1 μM, 6 hours after 5 ng/ml TGF-β
Method: A cell-based assay experiment was performed using Western blotting assay to determine the effect of pheophorbide a on phosphorylation in the TGF-β signaling pathway. CCD8-Lu cells, which are human lung-derived fibroblasts, were cultured in the DMEM medium containing 10% FBS. About 2×10^5 cells were then inoculated into a 6 well plate, cultured for 24 hours, and subjected to the deficient condition in the DMEM medium from which FBS was removed for about 24 hours. 24 hours later, following the treatment with TGF-β at a concentration of 5 ng/ml, fibrosis of cells was induced for 6 hours. Then, the cells were treated with pheophorbide a obtained in Preparation Example 2 or the therapeutic agent for pulmonary fibrosis and further cultured for 18 hours. Then, the negative control group was treated with nothing, the positive control group was treated with TGF-β alone at a concentration of 5 ng/ml, and the experimental groups were treated with TGF-β at a concentration of 5 ng/ml and 6 hours later, with pheophorbide a at a concentration of 5 μM and nintedanib at a concentration of 1 μM, respectively. […] The separated supernatant was obtained and transferred to a new microtube and then the protein was quantified using a bicinchoninic acid assay (BCA assay) protein quantitative kit. […]

Structure (SMILES)	expression of α-SMA, collagen 1A, and fibronectin induced by TGF-β ([1]; 1 mM)	expression of α-SMA, CTGF and NOX4 genes induced by TGF-β ([2]; 1 mM)	expression of α-SMA, collagen 1A, and fibronectin induced by TGF-β ([1]; 1 μM)	expression of α-SMA, CTGF and NOX4 genes induced by TGF-β ([2]; 1 μM)	expression of the collagen 1A protein induced by TGF-β [3]	expression of phosphorylated Smad3 and phosphorylated ERK induced by TGF-β [4]
Cc1ccc(=O)n(-c2ccccc2)c1 [pirfenidone]	weakly or hardly inhibited	weakly or hardly inhibited				
COC(=O)c1ccc2c(c1)NC(=O)/C2=C(\Nc1ccc(N(C)C(=O)CN2CCN(C)CC2)cc1)c1ccccc1 [nintedanib, reference compound]			weakly or hardly inhibited	weakly or hardly inhibited	weakly inhibited	hardly inhibited

— patent US20230015532A1, “PHARMACEUTICAL COMPOSITION, FOR PREVENTING OR TREATING FIBROSIS, COMPRISING PHEOPHORBIDE COMPOUND AS ACTIVE INGREDIENT” (PAEAN BIOTECHNOLOGY INC., priority 2019, published 2023)
